# Data: publication PMC9098913, “In vitro reconstitution of Escherichia coli divisome activation” (Nature Communications, 2022)
# Tested on: FtsA self-interaction
# Test: FRET self-interaction of His-tagged FtsAs (and His-SUMO control) on Tris-NTA membranes
# Format: binding, E. coli
# Method: To study colocalization of His-tagged variants of FtsA, 0.5–1 µM of Cy5 labelled His-tagged FtsAs were added to the chamber, incubated for 20 min and washed 6x with reaction buffer. […] To control the density of membrane-bound FtsA, SUVs without and with Tris-NTA lipids were mixed to obtain the respective Tris-NTA concentrations. To perform FRET/FRAP experiments, equimolar concentrations of Cy3 and Cy5 labelled His-tagged FtsAs (total 0.5–1 µM) or His-SUMO-Cys were added to a chamber and treated as above. […] FRAP experiments were performed as described before.
# Bleaching the acceptor dye leads to an increase in the donor intensity, which can be used to quantify the Foerster Resonance energy transfer (FRET)[48]. FRET efficiency was quantified with E%=Ipost/Ipost+Ipre⋅100 , where Ipost is the intensity of the […] and Ipre is the […]. […] To extract the contribution of both processes, we adjusted a routine recently published by Gerganova et al.[33]. In short, the code provides the contribution of both modes of recovery by analysing the shape of the fluorescence recovery profile. […] Contribution of diffusion leads to a change of the slope of the outer borders of the bleached region (S4h right). Thus, by measuring the change of the slope of the border recovery, diffusion and simple on/off binding can be distinguished. We developed “FRAPdiff”, a graphical user interface, which uses the original fit routine by David Rutkowski. It can be used directly on.tiff movies with annotated bleach regions as ImageJ ROIs. In addition, we added optional bleach correction, user selectable projection axis (x or y), and optional mirroring of the recovery profiles, if bleaching was not symmetric. The original fit routine for estimating the recovery and diffusion dynamics can be found at https://github.com/davidmrutkowski/1DReflectingDiffusion. FRAPdiff is available at 10.5281/zenodo.6400639[49] under the GPLv3 open-source license.
substance,measurement,setting,value
FtsA-His6: FtsA WT (1-405) with amphipathic helix replaced by C-terminal His-tag,FRET efficiency,"0.1% Tris NTA, + FtsZ; Exp1",3.78%
same,FRET efficiency,"0.1% Tris NTA, + FtsZ; Exp2",0.99%
same,FRET efficiency,"0.1% Tris NTA, + FtsZ; mean, n = 2",2.39%
same,FRET efficiency,"0.1% Tris NTA, without FtsZ; Exp1",3.14%
same,FRET efficiency,"0.1% Tris NTA, without FtsZ; Exp2",0.59%
same,FRET efficiency,"0.1% Tris NTA, without FtsZ; mean, n = 2",1.87%
same,FRET efficiency,0.4% Tris NTA; + FtsZ; Exp1,6.34%
same,FRET efficiency,0.4% Tris NTA; + FtsZ; Exp2,13.91%
same,FRET efficiency,"0.4% Tris NTA; + FtsZ; Mean, n = 2",10.12%
same,FRET efficiency,0.4% Tris NTA; without FtsZ; Exp1,8.25%
same,FRET efficiency,0.4% Tris NTA; without FtsZ; Exp2,10.75%
same,FRET efficiency,"0.4% Tris NTA; without FtsZ; Mean, n = 2",9.50%
same,FRET efficiency,0.6% Tris NTA; + FtsZ; Exp1,12.72%
same,FRET efficiency,0.6% Tris NTA; + FtsZ; Exp2,16.89%
same,FRET efficiency,0.6% Tris NTA; + FtsZ; Exp3,21.31%
same,FRET efficiency,"0.6% Tris NTA; + FtsZ; Mean, n = 3",16.97%
same,FRET efficiency,0.6% Tris NTA; without FtsZ; Exp1,13.98%
same,FRET efficiency,0.6% Tris NTA; without FtsZ; Exp2,15.14%
same,FRET efficiency,0.6% Tris NTA; without FtsZ; Exp3,19.21%
same,FRET efficiency,"0.6% Tris NTA; without FtsZ; Mean, n = 3 (His6-SUMO n = 2)",16.11%
same,FRET efficiency,0.8% Tris NTA; + FtsZ; Exp1,13.61%
same,FRET efficiency,0.8% Tris NTA; + FtsZ; Exp2,19.13%
same,FRET efficiency,0.8% Tris NTA; + FtsZ; Exp3,15.44%
same,FRET efficiency,"0.8% Tris NTA; + FtsZ; Mean, n = 3",16.06%
same,FRET efficiency,0.8% Tris NTA; without FtsZ; Exp1,14.15%
same,FRET efficiency,0.8% Tris NTA; without FtsZ; Exp2,18.41%
same,FRET efficiency,0.8% Tris NTA; without FtsZ; Exp3,13.88%
same,FRET efficiency,"0.8% Tris NTA; without FtsZ; Mean, n = 3 (His6-SUMO n = 2)",15.48%
same,FRET efficiency,1% Tris NTA; + FtsZ; Exp1,18.34%
same,FRET efficiency,1% Tris NTA; + FtsZ; Exp2,21.19%
same,FRET efficiency,1% Tris NTA; + FtsZ; Exp3,19.01%
same,FRET efficiency,"1% Tris NTA; + FtsZ; Mean, n = 3 (R286W-His6 n = 4)",19.51%
same,FRET efficiency,1% Tris NTA; without FtsZ; Exp1,16.93%
same,FRET efficiency,1% Tris NTA; without FtsZ; Exp2,19.88%
same,FRET efficiency,1% Tris NTA; without FtsZ; Exp3,16.24%
same,FRET efficiency,"1% Tris NTA; without FtsZ; Mean, n = 3 (R286W-His6 n = 4)",17.68%
same,FRET efficiency,2% Tris NTA; + FtsZ; Exp1,32.05%
same,FRET efficiency,2% Tris NTA; + FtsZ; Exp2,31.95%
same,FRET efficiency,"2% Tris NTA; + FtsZ; Mean, n = 2",32.00%
same,FRET efficiency,2% Tris NTA; without FtsZ; Exp1,32.49%
same,FRET efficiency,2% Tris NTA; without FtsZ; Exp2,23.34%
same,FRET efficiency,"2% Tris NTA; without FtsZ; Mean, n = 2",27.92%
same,FRET efficiency,"Tris 0.40 %, + FtsZ; mean",10.12%
same,FRET efficiency,"Tris 0.40 %, without FtsZ; mean",9.50%
same,FRET efficiency,"Tris 0.60 %, + FtsZ; mean",16.97%
same,FRET efficiency,"Tris 0.60 %, without FtsZ; mean",16.11%
same,FRET efficiency,"Tris 0.80 %, + FtsZ; mean",16.06%
same,FRET efficiency,"Tris 0.80 %, without FtsZ; mean",15.48%
same,FRET efficiency,"Tris 1.00 %, + FtsZ; mean",19.51%
same,FRET efficiency,"Tris 1.00 %, without FtsZ; mean",17.68%
same,FRET efficiency,"Tris 2.00 %, + FtsZ; mean",32.00%
same,FRET efficiency,"Tris 2.00 %, without FtsZ; mean",27.92%
same,FRET efficiency,"Tris […], + FtsZ; mean",28.93%
same,FRET efficiency,"Tris […], without FtsZ; mean",25.95%
same,FRET efficiency,"[…] Tris NTA, + FtsZ; Exp1",2.38%
same,FRET efficiency,"[…] Tris NTA, + FtsZ; Exp2",10.40%
same,FRET efficiency,"[…] Tris NTA, + FtsZ; mean, n = 2",6.39%
same,FRET efficiency,"[…] Tris NTA, without FtsZ; Exp1",3.80%
same,FRET efficiency,"[…] Tris NTA, without FtsZ; Exp2",9.45%
same,FRET efficiency,"[…] Tris NTA, without FtsZ; mean, n = 2; listed as FtsA WT-His6",6.62%
same,FRET efficiency,"[…] Tris NTA, without FtsZ; mean, n = 2; listed as WT-His6",6.63%
same,FRET efficiency,[…] Tris NTA; + FtsZ; Exp1,34.73%
same,FRET efficiency,[…] Tris NTA; + FtsZ; Exp2,27.23%
same,FRET efficiency,[…] Tris NTA; + FtsZ; Exp3,24.81%
same,FRET efficiency,"[…] Tris NTA; + FtsZ; Mean, n = 3",28.93%
same,FRET efficiency,[…] Tris NTA; without FtsZ; Exp1,28.26%
same,FRET efficiency,[…] Tris NTA; without FtsZ; Exp2,26.94%
same,FRET efficiency,[…] Tris NTA; without FtsZ; Exp3,22.66%
same,FRET efficiency,"[…] Tris NTA; without FtsZ; Mean, n = 3",25.95%
same,FRET efficiency,[…] Tris-NTA; + N (FtsNcyto); mean,26.95%
same,FRET efficiency,[…] Tris-NTA; + N/Z (FtsNcyto and FtsZ); mean,24.12%
same,FRET efficiency,[…] Tris-NTA; + N/Z; Exp. 1,22.20%
same,FRET efficiency,[…] Tris-NTA; + N/Z; Exp. 2,29.86%
same,FRET efficiency,[…] Tris-NTA; + N/Z; Exp. 3,20.31%
same,FRET efficiency,[…] Tris-NTA; + N; Exp. 1,28.94%
same,FRET efficiency,[…] Tris-NTA; + N; Exp. 2,24.96%
same,FRET efficiency,[…] Tris-NTA; + N; Exp. 3,26.96%
same,FRET efficiency,[…] Tris-NTA; + Z (FtsZ); mean,27.70%
same,FRET efficiency,[…] Tris-NTA; + Z; Exp. 1,34.73%
same,FRET efficiency,[…] Tris-NTA; + Z; Exp. 2,27.23%
same,FRET efficiency,[…] Tris-NTA; + Z; Exp. 3,24.81%
same,FRET efficiency,[…] Tris-NTA; + Z; Exp. 4,24.02%
same,FRET efficiency,[…] Tris-NTA; alone; Exp. 1,28.26%
same,FRET efficiency,[…] Tris-NTA; alone; Exp. 2,26.94%
same,FRET efficiency,[…] Tris-NTA; alone; Exp. 3,22.66%
same,FRET efficiency,[…] Tris-NTA; alone; Exp. 4,20.84%
same,FRET efficiency,[…] Tris-NTA; alone; mean,24.68%
